In patent US9605064B2, “Methods and compositions for treatment of skin disorders” (AbbVie Biotechnology Ltd, priority 2006, dated 2017):
Several values for one entry are separate records, joined by “and”; a condition that tells them apart may be missing. Equal entries are not always repeated. Marks after values point to notes of the source that are not given here.

Experiments:
[1] = test system: patients with moderate to severe chronic plaque psoriasis; assay: Adverse events, open-label extension of CHAMPION
[2] = test system: patients with moderate to severe psoriasis; assay: PGA, open-label extension of REVEAL; assay type: in vivo, human; details: for PGA “Clear” or “Minimal”: n = 233, ITT, LOCF
Method: Laboratory parameters and adverse events were also recorded.

[3] = test system: patients with moderate to severe chronic plaque psoriasis; assay: PASI response, CHAMPION 16-week Phase III trial vs methotrexate and placebo; assay type: in vivo, human; details: for PASI 75 Response Rates, % Patients / PASI 90 Response Rates, % Patients: missing PASI = non-responder
Method: Analytical methods included the following: • Intention-to-treat analyses were performed for all randomized patients • Missing data were analyzed using non-responder imputation (NRI) • PASI 75 at Week 16 (primary endpoint) was analyzed using adjusted Cochran-Mantel-Haenszel test.

[4] = test system: patients with moderate to severe plaque psoriasis; assay: Adverse events and laboratory abnormalities, 12-week open-label weekly therapy then randomized eow or withdrawal
[5] = test system: patients with moderate to severe plaque psoriasis; assay: PGA, 12-week open-label weekly therapy then randomized eow or withdrawal; assay type: in vivo, human
[6] = test system: patients with severe psoriasis who were non-responders to high-dosage etanercept; assay: PASI response, open-label adalimumab in non-responders to high-dosage etanercept; assay type: in vivo, human
Method: Details on clinical course and adverse events were recorded, along with measurements of PASI and Dermatology Life Quality Index (DLQI) at baseline and Weeks 2, 4, 8, and 12.
This was an open-label prospective evaluation of adalimumab (HUMIRA®, Abbott Laboratories, Abbott Park, Ill., USA). Patients who were non-responders to etanercept were recruited from the Severe Psoriasis Clinic at St John's Institute of Dermatology in London. […] Inclusion criteria included male and female patients more than 18 years of age with plaque psoriasis (Table 98). The study was approved by St Thomas' Research Ethics Committee, and informed consent was obtained from all participants.
The study period was 12 weeks. […] Patients were able to withdraw from the study at any stage. They were permitted to continue topical treatments at stable dosages throughout the study, but could not use concomitant systemic therapy for psoriasis.
At each clinical visit PASI, DLQI, and percentage body surface area (% BSA) affected were assessed and recorded. In addition, patients received medical assessments together with monitoring laboratory investigations (FIG. 11).
The secondary efficacy endpoint was PASI 75 response rate at Week 12.

[7] = test system: patients with moderate to severe plaque psoriasis; assay: EuroQOL 5D (EQ-5D), Phase II trial; assay type: in vivo, human; details: Week 12
Method: This study provided the opportunity to evaluate the validity and responsiveness to change in clinical status of PROs instruments. Patients completed the DLQI, SF-36, and EQ-5D questionnaires at baseline and at 12 weeks. Blinded investigators assessed the Psoriasis Area and Severity Index (PASI) scores and the Physician's Global Assessment (PGA) scores of enrolled patients. The responsiveness of the measures to changes in the clinical endpoints from baseline to Week 12 was assessed. Estimates of minimum important differences (MID) were derived. All analyses were performed with blinded data; findings and conclusions were not biased based on treatment condition.
Three PROs measures were used in the study and are the subject of the analyses reported here. All PROs measures were assessed at baseline and at Week 12 (or early termination, if applicable).
The EQ-5D [17,18] is a six-item, preference-based instrument designed to measure general health status. The EQ-5D has two sections: The first consists of five items to assess degree of physical functioning (mobility, self-care, usual activities, pain/discomfort, and anxiety/depression). […]
The relationship between mean change in EQ-5D and clinical responses was evaluated from baseline to Week 12. […]

[8] = through Week 24 of the OLE (N = 95), AEs occurring ≧5% of patients
[9] = through Week 24 of the OLE (N = 95), MTX patients transitioned to adalimumab 40 mg eow
[10] = Double-blind period Weeks 12-24, 40 mg eow (N = 68)
[11] = Open-label period Weeks 0-11, 40 mg weekly (N = 148)

Adalimumab: a human anti-TNF mAb, described in U.S. Pat. No. 6,090,382 as D2E7 (HUMIRA, Abbott Laboratories)
rebound ([1]; first 24 weeks of the OLE): No cases of rebound were observed | Injection-site reaction, Percentage of Patients [1, 8]: 5% | Nasopharyngitis, Percentage of Patients [1, 8]: 6% | AEs leading to withdrawal, Percentage of Patients [1, 9]: 1% | Any AE, Percentage of Patients [1, 9]: 47% | Any malignancy, Percentage of Patients [1, 9]: 0% | Rebound psoriasis, Percentage of Patients [1, 9]: 0% | Serious AE, Percentage of Patients [1, 9]: 5% | PGA scores of “clear” or “minimal ([2]; OLE of REVEAL): 74% | PGA “Clear” or “Minimal” ([2]; Week 0 of OLE): 70% | PGA “Clear” or “Minimal” ([2]; Week 12 of OLE): 71% | PGA “Clear” or “Minimal” ([2]; Week 24 of OLE): 74% | mean percentage PASI improvement ([3]; Week 4): 57% | PASI 75 Response Rates, % Patients ([3]; Week 4, ITT): 23*† % | PASI 90 Response Rates, % Patients ([3]; Week 4, ITT): 7* % | PASI 75 Response Rates, % Patients ([3]; Week 8, ITT): 62‡ % | PASI 90 Response Rates, % Patients ([3]; Week 8, ITT): 27†‡ % | PASI 75 Response Rates, % Patients ([3]; Week 12, ITT): 77‡ % | PASI 90 Response Rates, % Patients ([3]; Week 12, ITT): 48†‡ % | PASI 75 ([3]; Week 16, ITT, NRI): 80% | PASI 75 Response Rates, % Patients ([3]; Week 16, ITT): 80‡ % | PASI 90 Response Rates, % Patients ([3]; Week 16, ITT): 52†‡ % | PASI 75 Response Rates, % Patients ([3]; Week 16, ITT, listed as ADA): 79.6% * † | PASI 90 Response Rates, % Patients ([3]; Week 16, ITT, listed as ADA): 51.9% * † | PASI 50 response rate ([3]; Week 16 of CHAMPION, ITT, NRI): 88.0% * † | PASI 100 response rate ([3]; Week 16 of CHAMPION, ITT, NRI): 16.7% ‡ § | patients with serious adverse events ([4]; 24-week trial): Four patients | tuberculosis or other opportunistic infections, lymphoma, melanoma, other malignancies, demyelinating disorders, lupus-like syndromes, congestive heart failure ([4]; 24-week trial): No patients developed | Any AE [4, 10]: 46 (67.6) n (%) | Any AEs leading to discontinuation [4, 10]: 2 (2.9) n (%) | Any SAE [4, 10]: 2 (2.9) n (%) | Arthralgia [4, 10]: 5 (7.4) n (%) | Headache [4, 10]: 1 (1.5) n (%) | Injection site reaction [4, 10]: 4 (5.9) n (%) | Nasopharyngitis [4, 10]: 3 (4.4) n (%) | Any AE [4, 11]: 105 (70.9) n (%) | Any AEs leading to discontinuation [4, 11]: 1 (0.7) n (%) | Any SAE [4, 11]: 2 (1.4) n (%) | Arthralgia [4, 11]: 4 (2.7) n (%) | Headache [4, 11]: 11 (7.4) n (%) | Injection site reaction [4, 11]: 17 (11.5) n (%) | Nasopharyngitis [4, 11]: 11 (7.4) n (%) | ALT elevation greater than 2.5 times the upper limit of normal ([4]; Week 12): No patients | ALT elevation greater than 2.5 times the upper limit of normal ([4]; adalimumab eow group, Week 24): One patient | arthralgias ([4]; adalimumab eow group, Weeks 12-24): 7.4% | patients who withdrew because of an adverse event ([4]; of the 148 patients who received at least one dose): three | rebound (pre-specified definition) ([4]; three patients classified by investigators as rebounders): None of the three patients met the study's pre-specified definition of rebound | PGA “Clear” or “Minimal” ([5]; open-label 40 mg weekly, Week 12): 66% | PGA “Clear” or “Minimal” ([5]; randomized to 40 mg eow at Week 12, Week 24): 54.4% | patients who achieved at least PASI 50 ([6]; 40 mg weekly, Week 12): 80% | PASI 50 response ([6]; Patient 1): non-responder | time at which PASI 50 was achieved ([6]; Patient 2): ≤ 8 Week | time at which PASI 75 was reached ([6]; Patient 2): 12 Week | time at which PASI 50 was achieved ([6]; Patient 3): ≤ 4 Week | time at which PASI 50 was achieved ([6]; Patient 4): ≤ 2 Week | time at which PASI 75 was reached ([6]; Patient 4): 4 Week | time at which PASI 50 was achieved ([6]; Patient 5): ≤ 12 Week | PASI ([6]; Week 2, individual patients 1-5 (c1-c5), weekly adalimumab): 23.4 and 23.6 and 21.6 and 11.2 and 22.9 | PASI ([6]; Week 4, individual patients 1-5 (c1-c5), weekly adalimumab): 26.7 and 20.1 and 8.70 and 7.00 and 23.6 | PASI ([6]; Week 8, individual patients 1-5 (c1-c5), weekly adalimumab): 18.2 and 12.3 and 8.40 and 19.6 | PASI ([6]; Week 12, individual patients 1-5 (c1-c5), weekly adalimumab): 21.2 and 6.30 and 3.3 and 7.10 and 15.2 | % Improvement in PASI from baseline to Week 12 ([6]; individual patients 1-5 (c1-c5), weekly adalimumab): 6% and 82% and 93% and 52% and 53% | Mean Change in EQ-5D VAS, Change from Baseline ([7]; 40 mg eow): 18 | Mean Change in EQ-5D VAS, Change from Baseline ([7]; 40 mg weekly): 10.9
